Reference: PubChem BioAssay AID1963959 (Molecular Pharmacology Branch, DTP, NCI, 2024)
Several values for one entry are separate records, joined by “and”; a condition that tells them apart may be missing. Equal entries are not always repeated.

Tested on: T-47D spheroids with HUVEC/MSC, viability
Assay: Anticancer human tumor T-47D cell line growth inhibition [PI3K];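 note: spheroids exposed to agents for seven days before reading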;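 for viability, T/C: percent of DMSO vehicle control luminescence so 100% = untreated growth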
Conditions: for viability, T/C: stronger effect = lower value
Excerpt: Combinatorial screen of targeted agents with the PI3K inhibitors inavolisib, alpelisib, duvelisib, and copanlisib in multi-cell type tumor spheroids
A high-throughput screen of multi-cell type tumor spheroids was designed to identify active combinations of targeted small molecules and PI3K pathway inhibitors. Complex spheroids include a stromal component modeled by human endothelial cells (HUVEC) and fibroblasts modeled by human mesenchymal stem cells (MSCs). The concentration ranges selected for each drug and investigational agent were based upon clinically achievable concentrations if the clinical Cmax of the agent was known.
Compounds. The drugs and investigational agents: inavolisib (NSC800729), alpelisib (NSC765974), duvelisib (NSC772469), copanlisib (NSC816437), ipatasertib (NSC767898), afuresertib (NSC778305), talazoparib (NSC767125), sapanisertib (NSC764658), selumetinib (NSC741078), tovorafenib (DAY101, NSC766906), vemurafenib (NSC761431), ravoxertinib (NSC781343), sotorasib (NSC818433), MRTX1133 (NSC 836407), abemaciclib (NSC 768073), palbociclib (NSC758247), venetoclax (NSC 766270), SY5609 (NSC837396), enzalutamide (NSC755605), and darolutamide (NSC825331), were obtained from the National Cancer Institute (NCI) Developmental Therapeutics Program Chemical Repository. The FDA-approved anticancer drug set is available from the NCI Developmental Therapeutics Program. […] The stock solutions were prepared in dimethyl sulfoxide (DMSO, Sigma-Aldrich, St. Louis, MO, cat. D2650) at 800-fold the tested concentration and stored at -70 degrees C prior to their use. All drugs and investigational agents were tested over a range starting from a high concentration at or near the clinical Cmax and decreasing in half-log increments. If the clinical Cmax for an agent had not been determined, the highest concentration tested was 10 microM.
Cell Culture. All cells were maintained in an incubator at 37 degrees C and 5% CO2 with 95% humidity. The PDC lines were cultured according to standard operating procedures established by the NCI PDMR (https://pdmr.cancer.gov/sops/default.htm). All PDCs were thawed and cultured in Matrigel-coated flasks prepared with a working solution of 1X Ham's F-12 nutrient mix, without supplementation (Invitrogen, Waltham, MA, cat. 11765054), 100 U/mL penicillin-streptomycin (Invitrogen, cat. 15140122), and 2.5% Matrigel (Corning Inc., Corning, NY, cat. 354248) for the first three passages. The 354836-022-R-J1-PDC, 475296-252-R-J1-PDC, and 997726-040-R-J2-PDC lines were cultured in 6A media, which includes advanced DMEM/F-12 (Thermo Fisher Scientific, cat. 12634028), 10 mM HEPES (Thermo Fisher Scientific, cat. 15630080), 1X GlutaMAX supplement (Thermo Fisher Scientific, cat. 35050061), 0.1 mg/mL primocin (InvivoGen, San Diego, CA, cat. ant-pm-2), 10% defined fetal bovine serum, heat inactivated (HyClone Laboratories Inc., Logan, UT, cat. SH30070.03HI), 50% L-WRN conditioned media (ATCC, cat. CRL-3276), 1.25 mM N-Acetyl-L-cysteine (Sigma-Aldrich, cat. A9165), 10 mM nicotinamide (Sigma-Aldrich, cat. N0636), 1X B-27 supplement (Thermo Fisher Scientific, cat. 17504044), 1X N-2 supplement (Thermo Fisher Scientific, cat. 17502048), and 10 microM Y-27632 dihydrochloride (Tocris Bioscience, Bristol, United Kingdom, cat. 1254). The 624824-186-R-J2-PDC line was cultured in 6C/Colon 1B media, which includes all 6A media components plus 50 ng/mL human EGF recombinant protein (Thermo Fisher Scientific, cat. PHG0311). […]

[1] = curve of first compound, second compound 0.0316 µM
[2] = curve of first compound, second compound 0.1 µM
[3] = curve of first compound, second compound 0.316 µM
[4] = curve of first compound, second compound 1 µM
[5] = curve of first compound, second compound 3.16 µM
[6] = curve of first compound, second compound 10 µM
[7] = second compound 0.0316 µM, first compound 0.0316 µM
[8] = second compound 0.0316 µM, first compound 0.1 µM
[9] = second compound 0.1 µM, first compound 0.0316 µM
[10] = second compound 0.1 µM, first compound 0.1 µM
[11] = second compound 0.316 µM, first compound 0.0316 µM
[12] = second compound 0.316 µM, first compound 0.1 µM
[13] = second compound 1 µM, first compound 0.0316 µM
[14] = second compound 1 µM, first compound 0.1 µM
[15] = second compound 3.16 µM, first compound 0.0316 µM
[16] = second compound 3.16 µM, first compound 0.1 µM
[17] = second compound 10 µM, first compound 0.0316 µM
[18] = second compound 10 µM, first compound 0.1 µM
[19] = second compound 0.0316 µM, first compound 0.316 µM
[20] = second compound 0.0316 µM, first compound 1 µM
[21] = second compound 0.0316 µM, first compound 3.16 µM
[22] = second compound 0.0316 µM, first compound 10 µM
[23] = second compound 0.1 µM, first compound 0.316 µM
[24] = second compound 0.1 µM, first compound 1 µM
[25] = second compound 0.1 µM, first compound 3.16 µM
[26] = second compound 0.1 µM, first compound 10 µM
[27] = second compound 0.316 µM, first compound 0.316 µM
[28] = second compound 0.316 µM, first compound 1 µM
[29] = second compound 0.316 µM, first compound 3.16 µM
[30] = second compound 0.316 µM, first compound 10 µM
[31] = second compound 1 µM, first compound 0.316 µM
[32] = second compound 1 µM, first compound 1 µM
[33] = second compound 1 µM, first compound 3.16 µM
[34] = second compound 1 µM, first compound 10 µM
[35] = second compound 3.16 µM, first compound 0.316 µM
[36] = second compound 3.16 µM, first compound 1 µM
[37] = second compound 3.16 µM, first compound 3.16 µM
[38] = second compound 3.16 µM, first compound 10 µM
[39] = second compound 10 µM, first compound 0.316 µM
[40] = second compound 10 µM, first compound 1 µM
[41] = second compound 10 µM, first compound 3.16 µM
[42] = second compound 10 µM, first compound 10 µM

## Cn1ncnc1[C@H]1c2n[nH]c(=O)c3cc(F)cc(c23)N[C@@H]1c1ccc(F)cc1 + CC(Nc1ncnc2nc[nH]c12)c1cc2cccc(Cl)c2c(=O)n1-c1ccccc1
[1]
  IC50: > 0.1 µM
[2]
  IC50: > 0.1 µM
[3]
  IC50: > 0.1 µM
[4]
  IC50: > 0.1 µM
[5]
  IC50: > 0.1 µM
[6]
  IC50: > 0.1 µM
Second compound 0.0316 µM, first compound 0.000316 µM
  viability, T/C: 86.8%
Second compound 0.0316 µM, first compound 0.001 µM
  viability, T/C: 92.8%
Second compound 0.0316 µM, first compound 0.00316 µM
  viability, T/C: 79.7%
Second compound 0.0316 µM, first compound 0.01 µM
  viability, T/C: 94.8%
[7]
  viability, T/C: 99.6%
[8]
  viability, T/C: 80.8%
Second compound 0.1 µM, first compound 0.000316 µM
  viability, T/C: 110%
Second compound 0.1 µM, first compound 0.001 µM
  viability, T/C: 82.2%
Second compound 0.1 µM, first compound 0.00316 µM
  viability, T/C: 99.3%
Second compound 0.1 µM, first compound 0.01 µM
  viability, T/C: 91.5%
[9]
  viability, T/C: 89.5%
[10]
  viability, T/C: 93.3%
Second compound 0.316 µM, first compound 0.000316 µM
  viability, T/C: 98.1%
Second compound 0.316 µM, first compound 0.001 µM
  viability, T/C: 82.9%
Second compound 0.316 µM, first compound 0.00316 µM
  viability, T/C: 90.6%
Second compound 0.316 µM, first compound 0.01 µM
  viability, T/C: 100%
[11]
  viability, T/C: 85.6%
[12]
  viability, T/C: 92.1%
Second compound 1 µM, first compound 0.000316 µM
  viability, T/C: 98.3%
Second compound 1 µM, first compound 0.001 µM
  viability, T/C: 89.6%
Second compound 1 µM, first compound 0.00316 µM
  viability, T/C: 102%
Second compound 1 µM, first compound 0.01 µM
  viability, T/C: 74.5%
[13]
  viability, T/C: 86.5%
[14]
  viability, T/C: 92.6%
Second compound 3.16 µM, first compound 0.000316 µM
  viability, T/C: 86.3%
Second compound 3.16 µM, first compound 0.001 µM
  viability, T/C: 90.2%
Second compound 3.16 µM, first compound 0.00316 µM
  viability, T/C: 88.6%
Second compound 3.16 µM, first compound 0.01 µM
  viability, T/C: 83.2%
[15]
  viability, T/C: 103%
[16]
  viability, T/C: 96.3%
Second compound 10 µM, first compound 0.000316 µM
  viability, T/C: 80.7%
Second compound 10 µM, first compound 0.001 µM
  viability, T/C: 81.7%
Second compound 10 µM, first compound 0.00316 µM
  viability, T/C: 83.4%
Second compound 10 µM, first compound 0.01 µM
  viability, T/C: 92.3%
[17]
  viability, T/C: 102%
[18]
  viability, T/C: 83.7%

## CC1(C)CCC(CN2CCN(c3ccc(C(=O)NS(=O)(=O)c4ccc(NCC5CCOCC5)c([N+](=O)[O-])c4)c(Oc4cnc5[nH]ccc5c4)c3)CC2)=C(c2ccc(Cl)cc2)C1 + CC(Nc1ncnc2nc[nH]c12)c1cc2cccc(Cl)c2c(=O)n1-c1ccccc1
[1]
  IC50: > 10 µM
[2]
  IC50: > 10 µM
[3]
  IC50: > 10 µM
[4]
  IC50: > 10 µM
[5]
  IC50: > 10 µM
[6]
  IC50: > 10 µM
[7]
  viability, T/C: 120%
[8]
  viability, T/C: 75.2%
[19]
  viability, T/C: 85.7%
[20]
  viability, T/C: 80.9%
[21]
  viability, T/C: 81%
[22]
  viability, T/C: 79.5%
[9]
  viability, T/C: 110%
[10]
  viability, T/C: 96%
[23]
  viability, T/C: 99.5%
[24]
  viability, T/C: 83.7%
[25]
  viability, T/C: 89.6%
[26]
  viability, T/C: 83.6%
[11]
  viability, T/C: 88.5%
[12]
  viability, T/C: 101%
[27]
  viability, T/C: 86%
[28]
  viability, T/C: 89.7%
[29]
  viability, T/C: 85.3%
[30]
  viability, T/C: 81%
[13]
  viability, T/C: 96.9%
[14]
  viability, T/C: 93.4%
[31]
  viability, T/C: 91%
[32]
  viability, T/C: 80.3%
[33]
  viability, T/C: 77.1%
[34]
  viability, T/C: 79.2%
[15]
  viability, T/C: 91.6%
[16]
  viability, T/C: 88.9%
[35]
  viability, T/C: 97.3%
[36]
  viability, T/C: 95.5%
[37]
  viability, T/C: 87.3%
[38]
  viability, T/C: 66.8%
[17]
  viability, T/C: 96.5%
[18]
  viability, T/C: 94.4%
[39]
  viability, T/C: 88.8%
[40]
  viability, T/C: 89%
[41]
  viability, T/C: 86.1%
[42]
  viability, T/C: 79.8%

## Cn1nccc1Nc1nccc(-c2ccn(C(CO)c3ccc(Cl)c(F)c3)c(=O)c2)n1 (configuration not stated)
Compound 0.0316 µM
  viability, T/C: 103% [middle of 4 runs]
Compound 0.1 µM
  viability, T/C: 93.2% [middle of 4 runs]
Compound 0.316 µM
  viability, T/C: 105% [middle of 4 runs]
Compound 3.16 µM
  viability, T/C: 99.5% [middle of 4 runs]
Compound 10 µM
  viability, T/C: 82.5% and 92.7% and 101% (2×)
Curve of compound
  IC50: > 10 µM

## C=CC(=O)N1CCN(c2nc(=O)n(-c3c(C)ccnc3C(C)C)c3nc(-c4c(O)cccc4F)c(F)cc23)C(C)C1 (configuration not stated) + Cc1nc(NC(=O)N2CCCC2C(N)=O)sc1-c1ccnc(C(C)(C)C(F)(F)F)c1
[1]
  IC50: > 10 µM
[2]
  IC50: > 10 µM
[3]
  IC50: > 10 µM
[4]
  IC50: > 10 µM
[5]
  IC50: > 10 µM
[6]
  IC50: < 0.0316 µM
[7]
  viability, T/C: 112%
[8]
  viability, T/C: 92.4%
[19]
  viability, T/C: 102%
[20]
  viability, T/C: 84.8%
[21]
  viability, T/C: 88.8%
[22]
  viability, T/C: 98.5%
[9]
  viability, T/C: 105%
[10]
  viability, T/C: 89.7%
[23]
  viability, T/C: 97.2%
[24]
  viability, T/C: 77.8%
[25]
  viability, T/C: 116%
[26]
  viability, T/C: 106%
[11]
  viability, T/C: 83.8%
[12]
  viability, T/C: 96%
[27]
  viability, T/C: 86.7%
[28]
  viability, T/C: 99%
[29]
  viability, T/C: 91.5%
[30]
  viability, T/C: 99.4%
[13]
  viability, T/C: 96.1%
[14]
  viability, T/C: 98%
[31]
  viability, T/C: 84.1%
[32]
  viability, T/C: 100%
[33]
  viability, T/C: 99.4%
[34]
  viability, T/C: 101%
[15]
  viability, T/C: 65.1%
[16]
  viability, T/C: 77.5%
[35]
  viability, T/C: 77.9%
[36]
  viability, T/C: 75.9%
[37]
  viability, T/C: 85.4%
[38]
  viability, T/C: 95.3%
[17]
  viability, T/C: 37%
[18]
  viability, T/C: 36.7%
[39]
  viability, T/C: 41.2%
[40]
  viability, T/C: 45%
[41]
  viability, T/C: 53%
[42]
  viability, T/C: 59.5%
